Measurements reported in patent USRE47689E1, “Compounds for treating spinal muscular atrophy” (PTC Therapeutics, Inc., priority 2011, dated 2019).
Like-named read-outs stand apart in the source and are kept apart here.

Experiments:
[1] = tested on: SMN2 minigene (full length SMN2 minigene mRNA containing SMN2 exon 7); test: SMN2 minigene mRNA splicing RT-qPCR assay in cultured cells; assay type: cell-based, human; conditions: Homo sapiens, HEK293-H, read-out: EC1.5x for production of full length SMN2 mRNA
Outline: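 Lysates → one-step RT-qPCR, minigene-specific primers (0.4 μM final) + GAPDH multiplex, 40 cycles. FL/GAPDH vs DMSO; EC1.5x, star-binned.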

Smn protein = Smn protein assay in cultured cells (SMN HTRF); assay type: cell-based, human; conditions: 48 hours; for maximum fold (Fold) increase of Smn protein: SMA patient fibroblast cells, 7-point concentration data, fold increase relative to vehicle control (SMN HTRF); for EC1.5x (concentration giving 1.5-fold Smn protein increase): SMA Type 1 patient fibroblast cells (GM03813), 7-point concentration curve, SMN HTRF, concentration producing 1.5 times Smn protein vs DMSO vehicle control, read-out: EC1.5x for Smn protein expression
Outline: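 Smn in SMA fibroblast lysates, measured by anti-SMN HTRF after 48 h compound exposure; EC1.5x from fold change over vehicle.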

[2] = HEK293H cells stably transfected with SMN2-A minigene, 24 hours, 7-point concentration curve, 1.5-fold relative to vehicle-treated cells

Row | SMILES | EC (1.5-fold) [1, 2] | maximum fold (Fold) increase of Smn protein (Smn protein) | melting point | EC1.5x (concentration giving 1.5-fold Smn protein increase) (Smn protein) | EC (1.5-fold) ([1]; 24 h)
1 | Cc1ccn2cc(-c3cc4ccc(N(C)CCN(C)C)cc4oc3=O)nc2n1 [Compound 226, 7-{[2-(dimethylamino)ethyl](methyl)amino}-3-(7-methylimidazo[1,2-a]pyrimidin-2-yl)-2H-chromen-2-one] | 3 to 30 µM | * (maximum fold increase of ≤1.2) | 188 to 191 °C |  | 
2 | O=c1oc2cc(N3CCCNCC3)ccc2cc1-c1nc(C(F)(F)F)cs1 [Compound 237, 7-(1,4-diazepan-1-yl)-3-[4-(trifluoromethyl)-1,3-thiazol-2-yl]-2H-chromen-2-one] | 1 to 3 µM | * (maximum fold increase of ≤1.2) | 200 °C |  | 
3 | CCc1ccn2cc(-c3cc4ccc(N5CCNCC5)cc4oc3=O)nc2c1 [Compound 287, 3-(7-ethylimidazo[1,2-a]pyridin-2-yl)-7-(piperazin-1-yl)-2H-chromen-2-one] | 0.3 to 1 µM | * (maximum fold increase of ≤1.2) | 253 to 263 °C |  | 
4 | Cc1cccn2cc(-c3cc4ccc(N5CCN[C@@H](C)C5)cc4oc3=O)nc12 [Compound 248, 3-(8-methylimidazo[1,2-a]pyridin-2-yl)-7-[(3S)-3-methylpiperazin-1-yl]-2H-chromen-2-one] | 0.1 to 0.3 µM | ** (fold increase between >1.2 and ≤1.35) | 162 to 166 °C | 1000 to 3000 nM | 
5 | Cc1cn2cc(-c3cc4ccc(C5CCN(C)CC5)cc4oc3=O)cnc2n1 [Compound 835, 3-(2-methylimidazo[1,2-a]pyrimidin-6-yl)-7-(1-methylpiperidin-4-yl)-2H-chromen-2-one] | 0.3 to 1 µM | ***** (fold increase >1.65) | 300 to 302 °C | 300 to 1000 nM | 
6 | Cc1cn2cc(-c3cc4ccc(N5CC[C@@H](N(C)C)C5)cc4oc3=O)nc2c(C)n1 [Compound 690, 7-[(3R)-3-(dimethylamino)pyrrolidin-1-yl]-3-(6,8-dimethylimidazo[1,2-a]pyrazin-2-yl)-2H-chromen-2-one] | 0.1 to 0.3 µM | **** (fold increase between >1.5 and ≤1.65) | 239 to 242 °C | 300 to 1000 nM | 
7 | O=c1oc2cc(N3CC4CCC(C3)N4)ccc2cc1-c1cn2cccc(Cl)c2n1 [Compound 526, 3-(8-chloroimidazo[1,2-a]pyridin-2-yl)-7-(3,8-diazabicyclo[3.2.1]oct-3-yl)-2H-chromen-2-one] |  | *** (fold increase between >1.35 and ≤1.5) | 213 to 216 °C |  | 0.1 to 0.3 µM
8 | Cc1cn2cc(-c3cc4ccc(N5CCN6CCC[C@H]6C5)cc4oc3=O)ccc2n1 [Cpd 651, 7-[(8aS)-hexahydropyrrolo[1,2-a]pyrazin-2(1H)-yl]-3-(2-methylimidazo[1,2-a]pyridin-6-yl)-2H-chromen-2-one] | < 0.1 µM | *** (fold increase between >1.35 and ≤1.5) | 231 to 233 °C | < 300 nM | 
9 | COc1cccc(-c2cc3ccc(N4CCN[C@@H](C)C4)cc3oc2=O)n1 [Compound 362, 3-(6-methoxypyridin-2-yl)-7-[(3S)-3-methylpiperazin-1-yl]-2H-chromen-2-one] | 0.3 to 1 µM | ** (fold increase between >1.2 and ≤1.35) | 155 to 157 °C |  | 
10 | Cc1cc(F)c2nc(-c3cc4ccc(N5CCNC6(CCC6)C5)cc4oc3=O)cn2c1 [Compound 598, 7-(5,8-diazaspiro[3.5]non-8-yl)-3-(8-fluoro-6-methylimidazo[1,2-a]pyridin-2-yl)-2H-chromen-2-one] | 0.1 to 0.3 µM | *** (fold increase between >1.35 and ≤1.5) | 244 to 254 °C |  | 
11 | CCN1CC[C@@H](Oc2ccc3cc(-c4cn5cc(C)nc(C)c5n4)c(=O)oc3c2)C1 [Compound 890, 3-(6,8-dimethylimidazo[1,2-a]pyrazin-2-yl)-7-{[(3R)-1-ethylpyrrolidin-3-yl]oxy}-2H-chromen-2-one] | < 0.1 µM | ***** (fold increase >1.65) | 193 to 195 °C | < 300 nM | 
12 | Cc1cn2cc(-c3cc4ccc(OCCN(C)C)cc4oc3=O)nc2c(C)n1 [Cpd 876, 7-[2-(dimethylamino)ethoxy]-3-(6,8-dimethylimidazo[1,2-a]pyrazin-2-yl)-2H-chromen-2-one] | < 0.1 µM | **** (fold increase between >1.5 and ≤1.65) | 251 to 253 °C | < 300 nM | 
13 | CN1CCCN(c2ccc3cc(-c4cn5cc(Cl)sc5n4)c(=O)oc3c2)CC1 [Compound 479, 3-(2-chloroimidazo[2,1-b][1,3]thiazol-6-yl)-7-(4-methyl-1,4-diazepan-1-yl)-2H-chromen-2-one] | 0.3 to 1 µM | * (maximum fold increase of ≤1.2) | 229 to 232 °C |  | 
14 | Cc1cn2cc(-c3cc4ccc(N5CC[C@H](CN(C)C)C5)cc4oc3=O)nc2c(C)n1 [Compound 965, 7-{(3R)-3-[(dimethylamino)methyl]pyrrolidin-1-yl}-3-(6,8-dimethylimidazo[1,2-a]pyrazin-2-yl)-2H-chromen-2-one] | < 0.1 µM | *** (fold increase between >1.35 and ≤1.5) | 206 to 208 °C | < 300 nM | 
15 | Cc1csc(-c2cc3ccc(N4CCCNCC4)cc3oc2=O)n1 [Compound 284, 7-(1,4-diazepan-1-yl)-3-(4-methyl-1,3-thiazol-2-yl)-2H-chromen-2-one] | 1 to 3 µM | * (maximum fold increase of ≤1.2) | 195 to 203 °C |  | 
16 | Cc1ccn2nc(-c3cc4ccc(N5CCNC(C)(C)C5)cc4oc3=O)cc2c1 [Compound 305, 7-(3,3-dimethylpiperazin-1-yl)-3-(5-methylpyrazolo[1,5-a]pyridin-2-yl)-2H-chromen-2-one] | 0.3 to 1 µM | ** (fold increase between >1.2 and ≤1.35) | 203 to 205 °C |  | 
17 | CC1(C)CN(c2ccc3cc(-c4cn5cccc(F)c5n4)c(=O)oc3c2)CCN1 [Compound 507, 7-(3,3-dimethylpiperazin-1-yl)-3-(8-fluoroimidazo[1,2-a]pyridin-2-yl)-2H-chromen-2-one] | 0.1 to 0.3 µM | **** (fold increase between >1.5 and ≤1.65) | 180 to 182 °C | < 300 nM | 
18 | Cc1cn2cc(-c3cc4ccc(CCNC(C)CO)cc4oc3=O)nc2c(C)n1 (stereo not shown) [Compound 872, 3-(6,8-dimethylimidazo[1,2-a]pyrazin-2-yl)-7-{2-[(1-hydroxypropan-2-yl)amino]ethyl}-2H-chromen-2-one] | 0.1 to 0.3 µM | **** (fold increase between >1.5 and ≤1.65) | 203 to 206 °C | 300 to 1000 nM | 
19 | C[C@H]1CN(c2ccc3cc(-c4cn5cccnc5n4)c(=O)oc3c2)CCN1 [Compound 170, 3-(imidazo[1,2-a]pyrimidin-2-yl)-7-[(3S)-3-methylpiperazin-1-yl]-2H-chromen-2-one] | 0.3 to 1 µM | ** (fold increase between >1.2 and ≤1.35) | 282 to 285 °C |  | 
20 | CCN1CCN(c2ccc3cc(-c4cc5ccccn5n4)c(=O)oc3c2)CC1 [Compound 194, 7-(4-ethylpiperazin-1-yl)-3-(pyrazolo[1,5-a]pyridin-2-yl)-2H-chromen-2-one] | 0.3 to 1 µM | * (maximum fold increase of ≤1.2) | 246 to 248 °C |  | 
21 | Cn1cc2cc(-c3cc4ccc(C5CCNCC5)cc4oc3=O)ccc2n1 [Compound 856, 3-(2-methyl-2H-indazol-5-yl)-7-(piperidin-4-yl)-2H-chromen-2-one] | < 0.1 µM | ***** (fold increase >1.65) | 232 to 238 °C | < 300 nM | 
22 | CC(=O)O.CC(=O)O.COc1nc(C)cn2cc(-c3cc4ccc(N5CCN(C)[C@H](C)C5)cc4oc3=O)nc12 [Compound 759, 7-[(3R)-3,4-dimethylpiperazin-1-yl]-3-(8-methoxy-6-methylimidazo[1,2-a]pyrazin-2-yl)-2H-chromen-2-one acetate (1:2)] | < 0.1 µM | *** (fold increase between >1.35 and ≤1.5) | 227 to 229 °C |  | 
23 | C[C@@H]1CN(c2ccc3cc(-c4cn5cc(Cl)cnc5n4)c(=O)oc3c2)CCN1 [Compound 350, 3-(6-chloroimidazo[1,2-a]pyrimidin-2-yl)-7-[(3R)-3-methylpiperazin-1-yl]-2H-chromen-2-one] | 1 to 3 µM | * (maximum fold increase of ≤1.2) | 255 to 259 °C |  | 
